Key:
Plasmodium falciparum [1] = experiment: NOVARTIS: Inhibition of Plasmodium falciparum 3D7 (drug-susceptible) proliferation in erythrocyte-based infection assay; type: functional, organism-based; settings: Plasmodium falciparum, 3D7
[2] = NOVARTIS: Cytotoxicity against human hepatocellular carcinoma cell line (Huh7); type: toxicity, cell-based, Huh-7; settings: Huh7 cells (hepatocellular carcinoma cell line)
Plasmodium falciparum [3] = experiment: NOVARTIS: Inhibition of Plasmodium falciparum W2 (drug-resistant) proliferation in erythrocyte-based infection assay; type: functional, organism-based; settings: Plasmodium falciparum, W2; read-out: EC50

## C[n+]1c2ccccc2nc2ccc(NC3CCCCC3N)cc21.[O-][Cl+3]([O-])([O-])[O-] (centres undefined)
Plasmodium falciparum [1]
  EC50: 256 nM
[2]
  CC50: 4210 nM
Plasmodium falciparum [3]
  EC50: 122 nM

## COc1cc(NCCCC(C)N)c2ncccc2c1 (centres undefined)
Plasmodium falciparum [1]
  EC50: 215 nM
[2]
  CC50: 14400 nM
Plasmodium falciparum [3]
  EC50: 418 nM

## CN(C)c1cc(NC(=O)Nc2cccc(Cl)c2)c2ccccc2n1
Plasmodium falciparum [1]
  EC50: 76.5 nM
[2]
  CC50: > 10000 nM
Plasmodium falciparum [3]
  EC50: 292 nM

## COc1ccc2nc(C)cc(Nc3ccc(Oc4ccc5ccccc5c4)c(Cl)c3)c2c1
Plasmodium falciparum [1]
  EC50: 166 nM
[2]
  CC50: 7070 nM
Plasmodium falciparum [3]
  EC50: 206 nM

## O=C(Nc1cccc(Cl)c1)c1cc2ccccc2cc1O
Plasmodium falciparum [1]
  EC50: 545 nM
[2]
  CC50: 7890 nM
Plasmodium falciparum [3]
  EC50: 229 nM

## Cc1ccccc1Nc1nc(NCCO)c2ccccc2n1
Plasmodium falciparum [1]
  EC50: 1710 nM
[2]
  CC50: 23700 nM
Plasmodium falciparum [3]
  EC50: 689 nM

## O=C(/C=C/c1ccccc1)Nc1ccccc1C(=O)Nc1ccc(-c2nc3ccc(NC(=O)c4ccccc4NC(=O)/C=C/c4ccccc4)cc3[nH]2)cc1
Plasmodium falciparum [1]
  EC50: 347 nM
[2]
  CC50: > 13300 nM
Plasmodium falciparum [3]
  EC50: 382 nM

## CC(C)NC(=O)c1cc(NC(=O)c2cccs2)ccc1N1CCc2ccccc2C1
Plasmodium falciparum [1]
  EC50: 1260 nM
[2]
  CC50: 16300 nM
Plasmodium falciparum [3]
  EC50: 479 nM

## COc1ccc(C=NNc2nc(Nc3ccc([N+](=O)[O-])cc3)nc(N3CCN(C)CC3)n2)cc1OC
Plasmodium falciparum [1]
  EC50: 1820 nM
[2]
  CC50: 15200 nM
Plasmodium falciparum [3]
  EC50: 444 nM

## Cc1cc(N2CCN(C)CC2)nc2ccc(NC(=O)/C=C/c3ccc4c(c3)OCO4)cc12
Plasmodium falciparum [1]
  EC50: > 1250 nM
[2]
  CC50: > 10000 nM
Plasmodium falciparum [3]
  EC50: 292 nM

## COC(=O)c1cccc(NC(=O)C(=Cc2cccc([N+](=O)[O-])c2)NC(=O)c2ccccc2OC)c1
Plasmodium falciparum [1]
  EC50: 994 nM
[2]
  CC50: > 100000 nM
Plasmodium falciparum [3]
  EC50: 2910 nM

## COc1ccc(-n2c(S)nnc2CNc2cccc(C(F)(F)F)c2)cc1
Plasmodium falciparum [1]
  EC50: 4860 nM
[2]
  CC50: > 100000 nM
Plasmodium falciparum [3]
  EC50: 2910 nM

## CCOC(=O)c1c(NC(=O)C(C)Sc2ncnc3c2oc2ccccc23)sc2c1CCC2 (centres undefined)
Plasmodium falciparum [1]
  EC50: > 8810 nM
[2]
  CC50: > 100000 nM
Plasmodium falciparum [3]
  EC50: 2900 nM

## CCN(CCN1CCN(S(=O)(=O)c2cc(Cl)ccc2Cl)CC1)CC1=CCC2CC1C2(C)C (centres undefined)
Plasmodium falciparum [1]
  EC50: 1790 nM
[2]
  CC50: > 10000 nM
Plasmodium falciparum [3]
  EC50: 289 nM

## CC(NCCCN(C)C)c1cc(C(C)(C)C)cc2c1CCC2(C)C (centres undefined)
Plasmodium falciparum [1]
  EC50: 620 nM
[2]
  CC50: 6220 nM
Plasmodium falciparum [3]
  EC50: 179 nM

## COC(CNC(=O)c1c[nH]c2ccc(S(=O)(=O)N3CCN(C)CC3)cc2c1=O)OC
Plasmodium falciparum [1]
  EC50: > 12500 nM
[2]
  CC50: > 100000 nM
Plasmodium falciparum [3]
  EC50: 2860 nM

## CN(CCCNc1ccnc2cc(Cl)ccc12)C(=O)/C=C/c1ccccc1
Plasmodium falciparum [1]
  EC50: 371 nM
[2]
  CC50: > 10000 nM
Plasmodium falciparum [3]
  EC50: 286 nM

## CCOc1ccc(C2C(C(=O)OCCc3ccccc3)=C(C)NC3=C2C(=O)CC(C)(C)C3)cc1 (centres undefined)
Plasmodium falciparum [1]
  EC50: 10700 nM
[2]
  CC50: > 100000 nM
Plasmodium falciparum [3]
  EC50: 2940 nM

## Cc1ccc(-n2cc(C(=O)N(C)Cc3ccccc3)c3ccccc3c2=O)cc1C
Plasmodium falciparum [1]
  EC50: > 9840 nM
[2]
  CC50: > 100000 nM
Plasmodium falciparum [3]
  EC50: 2930 nM

## Cc1nc(-c2nc3c(s2)CN(C(=O)COc2ccc(Cl)cc2)CC3)cs1
Plasmodium falciparum [1]
  EC50: > 10700 nM
[2]
  CC50: > 100000 nM
Plasmodium falciparum [3]
  EC50: 2920 nM

## Cc1cc(N2CCCC2)nc2ccc(NC(=S)NCCN3CCc4ccccc4C3)cc12
Plasmodium falciparum [1]
  EC50: 44 nM
[2]
  CC50: 21500 nM
Plasmodium falciparum [3]
  EC50: 629 nM

## CCN(CC)c1scc(-c2ccc(Cl)cc2)[s+]1
Plasmodium falciparum [1]
  EC50: 303 nM
[2]
  CC50: 25400 nM
Plasmodium falciparum [3]
  EC50: 725 nM

## CN(CCCNc1ccnc2cc(Cl)ccc12)C(=O)c1ccc(Cl)c([N+](=O)[O-])c1
Plasmodium falciparum [1]
  EC50: 137 nM
[2]
  CC50: > 7920 nM
Plasmodium falciparum [3]
  EC50: 226 nM

## O=[N+]([O-])c1ccc(S(=O)(=O)NCCCCNc2ccnc3cc(Cl)ccc23)cc1
Plasmodium falciparum [1]
  EC50: 934 nM
[2]
  CC50: 9670 nM
Plasmodium falciparum [3]
  EC50: 275 nM

## O=C(O)c1c(F)cccc1Cl
Plasmodium falciparum [1]
  EC50: > 7730 nM
[2]
  CC50: > 100000 nM
Plasmodium falciparum [3]
  EC50: 2850 nM

## COc1ccc2sc(Nc3nc(-c4ccccn4)cs3)nc2c1
Plasmodium falciparum [1]
  EC50: 118 nM
[2]
  CC50: 4400 nM
Plasmodium falciparum [3]
  EC50: 125 nM

## CNC(=O)c1nn(C)c2c1CC(NCC1CCCCC1)CC2 (centres undefined)
Plasmodium falciparum [1]
  EC50: > 12500 nM
[2]
  CC50: > 100000 nM
Plasmodium falciparum [3]
  EC50: 2830 nM

## CCCC(=O)O[C@]1(C(=O)CCl)[C@@H](C)CC2C3CCC4=CC(=O)C=C[C@]4(C)[C@@]3(F)C(=O)C[C@@]21C (some centres undefined)
Plasmodium falciparum [1]
  EC50: 1680 nM
[2]
  CC50: > 10000 nM
Plasmodium falciparum [3]
  EC50: 283 nM

## CCC(C)(C)c1ccc(OCCCC[n+]2cccc(C)c2C)c(C(C)(C)CC)c1
Plasmodium falciparum [1]
  EC50: 495 nM
[2]
  CC50: 15200 nM
Plasmodium falciparum [3]
  EC50: 430 nM

## O=C(C1=C(O)C(=O)N(CCCn2ccnc2)C1c1ccccc1[N+](=O)[O-])c1ccccc1 (centres undefined)
Plasmodium falciparum [1]
  EC50: > 12500 nM
[2]
  CC50: > 100000 nM
Plasmodium falciparum [3]
  EC50: 2830 nM

## c1ccc(-c2nc3cc4ccccc4cc3nc2-c2ccsc2)cc1
Plasmodium falciparum [1]
  EC50: 3440 nM
[2]
  CC50: > 100000 nM
Plasmodium falciparum [3]
  EC50: 2830 nM

## Cc1ncc(CN2CCC(C(=O)Nc3ccc(-n4cccn4)cc3)CC2)s1
Plasmodium falciparum [1]
  EC50: 3190 nM
[2]
  CC50: > 100000 nM
Plasmodium falciparum [3]
  EC50: 2830 nM

## CCCCNC(=S)N(Cc1cccs1)Cc1cc2cc(C)ccc2[nH]c1=O
Plasmodium falciparum [1]
  EC50: 1020 nM
[2]
  CC50: > 10000 nM
Plasmodium falciparum [3]
  EC50: 295 nM

## COc1ccccc1-n1c(S)nnc1-c1ccccc1O
Plasmodium falciparum [1]
  EC50: 276 nM
[2]
  CC50: > 10000 nM
Plasmodium falciparum [3]
  EC50: 295 nM

## O=C(Nc1cc(Cl)ccc1O)c1cnn2c(C(F)(F)F)cc(-c3ccc(F)cc3)nc12
Plasmodium falciparum [1]
  EC50: > 8740 nM
[2]
  CC50: > 100000 nM
Plasmodium falciparum [3]
  EC50: 2910 nM

## COc1ccc(CN(Cc2cc3cc(OC)c(OC)cc3[nH]c2=O)C(=S)NCCc2ccc(OC)c(OC)c2)cc1
Plasmodium falciparum [1]
  EC50: 5580 nM
[2]
  CC50: 35700 nM
Plasmodium falciparum [3]
  EC50: 1040 nM

## O=C(NCc1ccccc1)c1cnc(NCCC(c2ccccc2)c2ccccc2)nc1NCC1CCCCC1
Plasmodium falciparum [1]
  EC50: 527 nM
[2]
  CC50: > 10000 nM
Plasmodium falciparum [3]
  EC50: 292 nM

## COc1ccc(NC(=O)CCCCCn2c(SCc3cc(=O)oc4cc(O)ccc34)nc3ccsc3c2=O)cc1
Plasmodium falciparum [1]
  EC50: 5820 nM
[2]
  CC50: > 100000 nM
Plasmodium falciparum [3]
  EC50: 2870 nM

## COc1ccccc1CNC(=O)c1nn(-c2ccc(Cl)cc2)c(=O)c2ccccc12
Plasmodium falciparum [1]
  EC50: 1090 nM
[2]
  CC50: > 100000 nM
Plasmodium falciparum [3]
  EC50: 2820 nM

## CCCCCCCN(CCCCCCC)CC(O)c1cc2ccccc2c2cc(Br)ccc12 (centres undefined)
Plasmodium falciparum [1]
  EC50: 867 nM
[2]
  CC50: > 4630 nM
Plasmodium falciparum [3]
  EC50: 136 nM

## Cn1c(C(OCC(=O)N2CCN(Cc3ccccc3)CC2)c2cccnc2)cc2ccccc21 (centres undefined)
Plasmodium falciparum [1]
  EC50: 2250 nM
[2]
  CC50: 38100 nM
Plasmodium falciparum [3]
  EC50: 1100 nM

## CC(C(=O)N1CCN(C(c2ccccc2)c2ccccc2)CC1)N(CCN1CCOCC1)S(=O)(=O)c1ccccn1 (centres undefined)
Plasmodium falciparum [1]
  EC50: > 819 nM
[2]
  CC50: > 10000 nM
Plasmodium falciparum [3]
  EC50: 287 nM

## CCOc1ccc2[nH]c3c(NCCCN(C)C)ncnc3c2c1
Plasmodium falciparum [1]
  EC50: 203 nM
[2]
  CC50: 26600 nM
Plasmodium falciparum [3]
  EC50: 778 nM

## COc1ccc(/C=C2/SC(=N)N(c3ccccc3OC)C2=O)cc1
Plasmodium falciparum [1]
  EC50: 350 nM
[2]
  CC50: > 10000 nM
Plasmodium falciparum [3]
  EC50: 291 nM

## C=C[C@H]1CN2CC[C@H]1C[C@@H]2[C@@H](OC(=O)c1cccs1)c1ccnc2ccccc12
Plasmodium falciparum [1]
  EC50: 1130 nM
[2]
  CC50: > 10000 nM
Plasmodium falciparum [3]
  EC50: 294 nM

## CN(CCCNc1ccnc2cc(Cl)ccc12)C(=O)COc1ccccc1
Plasmodium falciparum [1]
  EC50: 98.3 nM
[2]
  CC50: > 10000 nM
Plasmodium falciparum [3]
  EC50: 286 nM

## C=CCN1/C(=C/C=C/c2sc3ccccc3[n+]2CC=C)Sc2ccccc21
Plasmodium falciparum [1]
  EC50: 2030 nM
[2]
  CC50: > 10000 nM
Plasmodium falciparum [3]
  EC50: 292 nM

## C=C[C@H]1CN2CC[C@H]1C[C@H]2[C@H](OC(=O)CCC)c1ccnc2ccccc12
Plasmodium falciparum [1]
  EC50: 335 nM
[2]
  CC50: > 10000 nM
Plasmodium falciparum [3]
  EC50: 286 nM

## CCc1cc2c(Nc3ccncc3)ncnc2s1
Plasmodium falciparum [1]
  EC50: 2500 nM
[2]
  CC50: > 100000 nM
Plasmodium falciparum [3]
  EC50: 2940 nM

## COc1ccc(CCN2C(=O)CC(C(=O)Nc3cccc(Cl)c3)SC2=Nc2ccccc2)cc1OC (centres undefined)
Plasmodium falciparum [1]
  EC50: 3820 nM
[2]
  CC50: > 100000 nM
Plasmodium falciparum [3]
  EC50: 2840 nM

## COc1ccc(C(=O)Oc2ccccc2-c2nc3cc(C)ccn3c2NC(C)(C)CC(C)(C)C)c(OC)c1
Plasmodium falciparum [1]
  EC50: 1630 nM
[2]
  CC50: > 10000 nM
Plasmodium falciparum [3]
  EC50: 283 nM

## CCc1ccc(-n2c(C(CC)N(CCc3ccccc3)C(=O)c3cc(OC)cc(OC)c3)nc3ccccc3c2=O)cc1 (centres undefined)
Plasmodium falciparum [1]
  EC50: > 547 nM
[2]
  CC50: > 10000 nM
Plasmodium falciparum [3]
  EC50: 292 nM

## CCCCN(C(=O)c1ccccc1C)c1nc(-c2cc(OC)ccc2OC)cs1
Plasmodium falciparum [1]
  EC50: 1720 nM
[2]
  CC50: > 100000 nM
Plasmodium falciparum [3]
  EC50: 2860 nM
